{
  "source": "patent US6943190B2",
  "about": "“Method of using pyruvate and/or its derivatives for the treatment of cytokine-mediated inflammatory conditions” (University of Pittsburgh-of the Commonwealth System of …, priority 2001, dated 2005)",
  "key": {"[1]": {"experiment": "Stability of pyruvate esters in aqueous solution", "assay_type": "physicochemical", "details": "in the presence of calcium salts; compared with sodium pyruvate"}, "p38 MAPK": {"system": "p38 MAPK", "experiment": "LPS-induced p38 MAPK phosphorylation in RAW264.7 cells (western blot)", "assay_type": "cell-based, murine", "description": "(a) RAW264.7 cells were stimulated with LPS in the presence of the indicated concentrations of ethyl pyruvate. The activation of NF-kB was analyzed by EMSA at 15 min and 4 hours using a ^32P-labeled NF-B probe. Ethyl pyruvate suppressed activation of NF-B in an ethyl pyruvate concentration dependent fashion. The experiment was repeated 3 times. (b) Supershift and competition studies. Nuclear extract of macrophages stimulated with LPS and incubated with antibody against p65-Rel to induce specific supershift of NF-κB complex. Nuclear extracts were incubated with 100-fold molar excess of unlabeled (cold) NP-κB or HIF-1 probe for competition analysis. (c) RAW264.7 cells were stimulated with LPS in the presence of the indicated concentration of ethyl pyruvate. The phosphorylation of p38MAPK was analyzed by western blot using antibodies against phosphorylated (thr180/tyr182) p38MAPK (in accordance with the manufacturer (New England Biolabs, Inc Cat. # 9210, Beverly, Mass.). (d) The total amount of p38 MAPK is visualized by western blot. Ethyl pyruvate prevents the phosphorylation of p38MAPK in macrophage cultures without affecting the intracellular level of total p38MAPK; and\nCell Culture. […]"}, "IL6": {"system": "IL6", "experiment": "Peak serum IL6 in endotoxemic mice (ELISA)", "assay_type": "in vivo, Balb/C mice", "details": "pretreatment, data not shown", "description": "Endotoxin shock. Mice were injected with endotoxin (Escherichia coli lipopolysaccharide, LPS 0111:B4; Sigma Chemical Co, St. Louis, Mo.) that was dissolved in sterile pyrogen-free saline at stock concentrations of 10 mg/ml. LPS solutions were sonicated for 20 min immediately prior to use for each experiment. Mice received an LD75 dose of LPS (5 mg/kg, i.p.). Blood was collected at different times after LPS administration, allowed to clot for 2 h at room temperature, then centrifuged for 20 min at 1,500 g. Serum samples were stored at […] prior to analysis. Mortality was recorded for up to 3 weeks after injection to ensure that no additional late deaths occurred.\nCytokine measurements. TNF concentration in mouse serum and in conditioned media from RAW 264.7 cell cultures was measured by ELISA (minimum detectable concentration=10 pg/ml). […] Mouse serum IL-6 and IL-1β levels were measured using ELISA kits (R&D Systems, Inc., Minneapolis, Minn.). HMGB-1 was analyzed by western blot as previously described by Wang et al, 1999. […] Protein was electroblotting to Immun-blot PVDF membrane (Bio-rad, Hercules Calif.) and HMGB-1 was analyzed using polyclonal 241 antibody and secondary anti-rabbit horseradish peroxidase (Amersham, Pitscataway, N.J.). Standard curves were constructed using r-HMGB-1, and the intensity of the 30 kD band analyzed by densitometry. […]"}},
  "data": [
    {"smiles": "CCOC(=O)C(C)=O", "note": "[ethyl pyruvate]", "values": [
      {"measurement": "stability of aqueous solution", "setting": "[1]", "result": "more stable aqueous solution than sodium pyruvate"},
      {"measurement": "LPS-induced phosphorylation of p38 MAPK", "setting": "p38 MAPK; antibodies against phosphorylated (thr180/tyr182) p38MAPK", "result": "prevented the LPS-induced phosphorylation and subsequent activation of p38 MAPK"},
      {"measurement": "total levels of p38 MAPK", "setting": "p38 MAPK; specificity control, western blot", "result": "did not significantly influence the total levels of p38 MAPK"},
      {"measurement": "peak serum level of IL6", "setting": "IL6", "result": "attenuated"}
    ]}
  ]
}
